Structures are written as SMILES. In brackets after ≈: the same amount, converted by molar mass.

This assay concerns K562. The experiment in a line: Cytotoxicity against human K562 cells. In kind it is functional. The note with it: read-out: LC50 (the source's name).
Regarding `C=C=CCC(OC(C)=O)C1=CO[C@H](OC(C)=O)[C@H]2C(=C)CC[C@@H]3O[C@@]3(C)CC[C@H]12` (some centres undefined) [ACALYCIXENIOLIDE E], the CC50 came out at 4.7 µg/mL (≈ 11.7 µM).
Then `C=C=CC/C=C1/C(=O)OC[C@H]2C(=C)CC[C@@H]3O[C@@]3(C)CC[C@H]12` [ACALYCIXENIOLIDE D], with 52 µg/mL (≈ 173 µM); and `C=C=CCC[C@@H]1C(=O)OC[C@H]2C(=C)CC[C@@H]3O[C@@]3(C)CC[C@H]12` [ACALYCIXENIOLIDE C], with 1.6 µg/mL (≈ 5.29 µM); and `C=C1CC[C@@H]2O[C@@]2(C)CC[C@@H]2[C@H](CCC=C(C)C)C(=O)OC[C@@H]12` [ACALYCIXENIOLIDE F], with 0.2 µg/mL (≈ 0.628 µM).

(Values after ChEMBL document CHEMBL1155679, “New xenicane diterpenoids from the gorgonian Acalycigorgia inermis” (2000).)
